One assay deals with rat dorsal raphe. In words: MEA recording of neuronal firing in rat dorsal raphe slice. In kind it is cell-based. The note with it: channels 34, 43, 48 and 57; heterogeneity noted.
In assay [1] the test system is olfactory bulb mitral cells. In words: Acute in vivo MEA recording of odour response in olfactory bulb. On the set-up: species or system male Wistar rats. The following applies: odour at 5.42×10^−6 M in breathing air, urethane anaesthesia. From the text: Multi-electrode array recordings from olfactory bulb mitral cells (5×5 array). 1. Spontaneous population burst. 2. Control, no odour. 3. Arnyl acetate. 4. N-butanol. 5. Cineole. 6. Pinene. 7. DL-Camphor. 8. Linalool (max response). 9. Linalool “off response”. […] The results are shown as peak odour response neuronal activity maps in olfactory bulb. These records were from male Wistar rats (400 g) anaesthetized with urethane and secured in a stereotaxic unit). The NeuroZonds MEAs of the invention penetrated the left olfactory bulbs horizontally (after left enucleation). The odours were presented in the animals breathing air under the control of the normal breathing cycle (detected by thermistor probe in mask), diluted from stock in pure nitrogen. The concentrations of odourants were determined according to the relative saturation vapour pressures of the odourants at particular temperatures via a custom-built ‘olfactometer’.

Experimental findings from patent US20100041972A1, “APPARATUS AND METHODS” (priority 2006, published 2010) are described below.

Experimental for rat dorsal raphe: Wistar rats or mice obtained from Charles River were sacrificed by cervical dislocation. The brain was rapidly removed and a block of tissue containing the relevant area was prepared. Brain tissue was glued onto a glass slide using cyanoacryalate glue (Permabond C2). The block was supported by a similar sized block of agar (3% in NaCl, 126 mM) glued immediately behind the brain block. Coronal slices (300 μm thick) of the relevant brain slice were cut from the brain using a Vibratome™ (Oxford Instruments, supplied by Intracel, Unit 4, Station Road, Shepreth, Royston. Herts. UK). The slices were transferred to artificial cerebrospinal fluid (ACSF) which contained (in mM): NaCl 126, KCl 5, NaH2PO4 1.24, CaCl2 2.4, MgCl2 1.3, NaHCO3 26, glucose 10, at pH 7.4, continuously bubbled with ‘carbogen’ (95% O2/5% CO2) and maintained at room temperature. […]
Extracelular action potentials were recorded from either isolated neurones, or several neurones per electrode. […]
All spike waveforms or LFP ‘events’ that crossed a pre-set voltage threshold (−12 and −8 pV respectively) were stored as both ‘time-stamps’ (i.e. ‘time of occurrence’), and as ‘spike cut-outs’ (i.e. digitised waveform prior to, and after threshold crossing). All experimental data were recorded directly on to hard disk, and backed up onto various means of data archiving. […]

As to `O=C1c2ccccc2C(Cc2ccncc2)(Cc2ccncc2)c2ccccc21` [XE-991], the “neuronal firing, effect of XE-991 after retigabine” value in the assay with rat dorsal raphe was “recovery of retigabine inhibition”. As for pinene, in assay [1], the “spatiotemporal dynamics of odour response” value is on record as “marked “off response””.
